Assay results taken from US20140073634A1 (Institute For Applied Cancer Science/The University of …, priority 2012, published 2014).
Structures can show the parent of a compound that is named as a salt.

tested on: 293T-HRE-GFP-luc cells; test: Cell-based reporter assay for IC50 determinations (HRE-luciferase, hypoxia); conditions: 6 h, 6 hrs hypoxia (1% O2), luminescence
In short: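 293T-HRE-GFP-luc cells were pre-incubated with serially diluted compounds for 30 min under normoxia, then held 6 hrs in hypoxia (1% O2, 37° C). HRE-driven luciferase read by Steadylite Plus luminescence; IC50 from four-parameter logistic fit.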

First: COCCOc1cccc(Cn2cc(-c3noc(-c4ccc(C(=O)N5CCCC5)cc4)n3)ccc2=O)c1 [Example 219, 1-{[3-(2-methoxyethoxy)phenyl]methyl}-5-{5-[4-(pyrrolidine-1-carbonyl)phenyl]-1,2,4-oxadiazol-3-yl}-1,2-dihydropyridin-2-one]
Second: COCCOc1cccc(Cn2cc(-c3noc(-c4ccc(N5CCCC5)cc4)n3)ccc2=O)c1 [Example 229, 1-{[3-(2-methoxyethoxy)phenyl]methyl}-5-{5-[4-(pyrrolidin-1-yl)phenyl]-1,2,4-oxadiazol-3-yl}-1,2-dihydropyridin-2-one]
The IC50 of the first is higher: 100 to 1000 nM for the first, under 100 nM for the second.

Compared with CN1CCN(C(=O)Cc2cccc(Cn3cc(-c4nc(-c5ccc(OC(F)(F)F)cc5)no4)ccc3=O)c2)CC1 [Example 156, 1-({3-[2-(4-methylpiperazin-1-yl)-2-oxoethyl]phenyl}methyl)-5-{3-[4-(trifluoromethoxy)phenyl]-1,2,4-oxadiazol-5-yl}-1,2-dihydropyridin-2-one], CN1CCN(C(=O)Cc2cccc(Cn3nc(-c4nc(-c5ccc(OC(F)(F)F)cc5)no4)ccc3=O)c2)CC1 [Example 143, 2-({3-[2-(4-methylpiperazin-1-yl)-2-oxoethyl]phenyl}methyl)-6-{3-[4-(trifluoromethoxy)phenyl]-1,2,4-oxadiazol-5-yl}-2,3-dihydropyridazin-3-one] is higher in IC50: under 100 nM for the first, 100 to 1000 nM for the second.

COCCOc1cccc(Cn2cc(-c3noc(-c4ccc(OCC(F)(F)F)cc4)n3)ccc2=O)c1 [Example 203, 1-{[3-(2-methoxyethoxy)phenyl]methyl}-5-{5-[4-(2,2,2-trifluoroethoxy)phenyl]-1,2,4-oxadiazol-3-yl}-1,2-dihydropyridin-2-one] and COCCOc1cccc(Cn2cc(-c3noc(-c4ccc(OC)cc4)n3)ccc2=O)c1 [Example 191, 1-{[3-(2-methoxyethoxy)phenyl]methyl}-5-[5-(4-methoxyphenyl)-1,2,4-oxadiazol-3-yl]-1,2-dihydropyridin-2-one] cannot be ordered by IC50: under 100 nM for the first, under 100 nM for the second.

CS(=O)(=O)c1cccc(Cn2cc(-c3nc(-c4ccc(OC(F)(F)F)cc4)no3)ccc2=O)c1 [Example 123, 1-(3-(methylsulfonyl)benzyl)-5-(3-(4-(trifluoromethoxy)phenyl)-1,2,4-oxadiazol-5-yl)pyridin-2(1H)-one] and NC(=O)c1cccc(Cn2cc(-c3nc(-c4ccc(OC(F)(F)F)cc4)no3)ccc2=O)c1 [Example 25, 3-((2-oxo-5-(3-(4-(trifluoromethoxy)phenyl)-1,2,4-oxadiazol-5-yl)pyridin-1(2H)-yl)methyl)benzamide] cannot be ordered by IC50: under 100 nM for the first, under 100 nM for the second.

First: CC1(C)CCN(c2cc(Cn3cc(-c4nc(-c5ccc(OC(F)(F)F)cc5)no4)ccc3=O)ccn2)CC1 [Example 154, 1-{[2-(4,4-dimethylpiperidin-1-yl)pyridin-4-yl]methyl}-5-{3-[4-(trifluoromethoxy)phenyl]-1,2,4-oxadiazol-5-yl}-1,2-dihydropyridin-2-one]
Second: COCCOc1cc(Cn2cc(-c3nc(-c4ccc(OC(F)(F)F)cc4)no3)ccc2=O)ccn1 [Example 51, 1-{[2-(2-Methoxyethoxy)pyridin-4-yl]methyl}-5-{3-[4-(trifluoromethoxy)phenyl]-1,2,4-oxadiazol-5-yl}-1,2-dihydropyridin-2-one]
The IC50 of the first is lower: under 100 nM for the first, 100 to 1000 nM for the second.

O=c1ccc(-c2nc(-c3ccc(OC(F)(F)F)cc3)no2)cn1Cc1cccc(OC2COC2)c1 [Example 166, 1-{[3-(oxetan-3-yloxy)phenyl]methyl}-5-{3-[4-(trifluoromethoxy)phenyl]-1,2,4-oxadiazol-5-yl}-1,2-dihydropyridin-2-one] and CN(C)C(=O)COc1cccc(Cn2cc(-c3nc(-c4ccc(OC(F)(F)F)cc4)no3)ccc2=O)c1 [Example 149, N,N-dimethyl-2-{3-[(2-oxo-5-{3-[4-(trifluoromethoxy)phenyl]-1,2,4-oxadiazol-5-yl}-1,2-dihydropyridin-1-yl)methyl]phenoxy}acetamide] cannot be ordered by IC50: under 100 nM for the first, under 100 nM for the second.

First: CN1CCN(c2cc(Cn3cc(-c4ncc(-c5ccc(OC(F)(F)F)cc5)o4)ccc3=O)ccn2)CC1 [Example 92, 1-((2-(4-Methylpiperazin-1-yl)pyridin-4-yl)methyl)-5-(5-(4-(trifluoromethoxy)phenyl)oxazol-2-yl)pyridin-2(1H)-one]
Second: CN1CCN(c2cccc(Cn3cc(-c4nc(-c5ccc(OC(F)(F)F)cc5)no4)ccc3=O)c2)CC1=O [Example 169, 1-methyl-4-{3-[(2-oxo-5-{3-[4-(trifluoromethoxy)phenyl]-1,2,4-oxadiazol-5-yl}-1,2-dihydropyridin-1-yl)methyl]phenyl}piperazin-2-one]
The IC50 of the first is higher: 100 to 1000 nM for the first, under 100 nM for the second. The second is the more potent here.

COCCOc1cccc(Cn2cc(-c3noc(-c4ccc(C)cc4)n3)ccc2=O)c1 [Example 192, 1-{[3-(2-methoxyethoxy)phenyl]methyl}-5-[5-(4-methylphenyl)-1,2,4-oxadiazol-3-yl]-1,2-dihydropyridin-2-one] and COCCOc1cccc(Cn2cc(-c3noc(-c4ccc(C#N)cc4)n3)ccc2=O)c1 [Example 194, 4-[3-(1-{[3-(2-methoxyethoxy)phenyl]methyl}-6-oxo-1,6-dihydropyridin-3-yl)-1,2,4-oxadiazol-5-yl]benzonitrile] cannot be ordered by IC50: under 100 nM for the first, under 100 nM for the second.

O=c1ccc(-c2cc(-c3ccc(OC(F)(F)F)cc3)no2)cn1Cc1cccc(NC2CCS(=O)(=O)CC2)c1 [Example 253, 1-(3-((1,1-dioxidotetrahydro-2H-thiopyran-4-yl)amino)benzyl)-5-(3-(4-(trifluoromethoxy)phenyl)isoxazol-5-yl)pyridin-2(1H)-one] and O=c1ccc(-c2nc(-c3ccc(OC(F)(F)F)cc3)no2)cn1Cc1ccc(F)c(N2CCOCC2)c1 [Example 138, 1-{[4-fluoro-3-(morpholin-4-yl)phenyl]methyl}-5-{3-[4-(trifluoromethoxy)phenyl]-1,2,4-oxadiazol-5-yl}-1,2-dihydropyridin-2-one] cannot be ordered by IC50: under 100 nM for the first, under 100 nM for the second.

Cc1ccc(-c2nc(-c3ccc(OC(F)(F)F)cc3)no2)c(=O)n1Cc1cccc(S(C)(=O)=O)c1 [Example 267, 1-[(3-methanesulfonylphenyl)methyl]-6-methyl-3-{3-[4-(trifluoromethoxy)phenyl]-1,2,4-oxadiazol-5-yl}-1,2-dihydropyridin-2-one] and COCCCNc1cc(Cn2c(C)ccc(-c3nc(-c4ccc(OC(F)(F)F)cc4)no3)c2=O)ccn1 [Example 17, 2-((3-Methoxypropyl)amino)-4-((6-methyl-2-oxo-3-(3-(4-(trifluoromethoxy)phenyl)-1,2,4-oxadiazol-5-yl)pyridin-1(2H)-yl)methyl)pyridin-1-ium trifluoroacetate] fall in the same range of IC50: 100 to 1000 nM for the first, 100 to 1000 nM for the second.

First: COCCOc1cccc(Cn2cc(-c3noc(-c4ccc(S(=O)(=O)C(F)(F)F)cc4)n3)ccc2=O)c1 [Example 187, 1-{[3-(2-methoxyethoxy)phenyl]methyl}-5-[5-(4-trifluoromethanesulfonylphenyl)-1,2,4-oxadiazol-3-yl]-1,2-dihydropyridin-2-one]
Second: COCCOc1cccc(Cn2cc(-c3noc(-c4ccc(S(C)(=O)=O)cc4)n3)ccc2=O)c1 [Example 202, 5-[5-(4-methanesulfonylphenyl)-1,2,4-oxadiazol-3-yl]-1-{[3-(2-methoxyethoxy)phenyl]methyl}-1,2-dihydropyridin-2-one]
The IC50 of the first is lower: under 100 nM for the first, 100 to 1000 nM for the second.

Compared with COCCOc1cccc(Cn2cc(-c3noc(-c4ccc(CC#N)cc4)n3)ccc2=O)c1 [Example 201, 2-{4-[3-(1-{[3-(2-methoxyethoxy)phenyl]methyl}-6-oxo-1,6-dihydropyridin-3-yl)-1,2,4-oxadiazol-5-yl]phenyl}acetonitrile], COCCOc1cccc(Cn2cc(-c3nc(-c4ccc(C5(O)CCOCC5)cc4)no3)ccc2=O)c1 [Example 215, 5-{3-[4-(4-hydroxyoxan-4-yl)phenyl]-1,2,4-oxadiazol-5-yl}-1-{[3-(2-methoxyethoxy)phenyl]methyl}-1,2-dihydropyridin-2-one] is higher in IC50: under 100 nM for the first, 100 to 1000 nM for the second.

First: CS(=O)(=O)CCCOc1cccc(Cn2cc(-c3nc(-c4ccc(OC(F)(F)F)cc4)co3)ccc2=O)c1 [Example 95, 1-(3-(3-(Methylsulfonyl)propoxy)benzyl)-5-(4-(4-(trifluoromethoxy)phenyl)oxazol-2-yl)pyridin-2(1H)-one]
Second: COCCOc1cccc(Cn2cc(-c3nnc(-c4ccc(OC(F)F)cc4)o3)ccc2=O)c1 [Example 257, 5-{5-[4-(difluoromethoxy)phenyl]-1,3,4-oxadiazol-2-yl}-1-{[3-(2-methoxyethoxy)phenyl]methyl}-1,2-dihydropyridin-2-one]
The IC50 of the first is lower: under 100 nM for the first, 100 to 1000 nM for the second.

CC(C)Oc1ccc(-c2nnc(-c3ccc(=O)n(Cc4cccc(N5CCC(S(C)(=O)=O)CC5)c4)n3)o2)cc1 [Example 106, 6-(5-(4-Isopropoxyphenyl)-1,3,4-oxadiazol-2-yl)-2-(3-(4-(methylsulfonyl)piperidin-1-yl)benzyl)pyridazin-3(2H)-one] and Cc1ccc(C(=O)Nc2ccc(OC(F)(F)F)cc2)c(=O)n1Cc1ccnc(N2CCN(C)CC2)c1 [Example 8, 1-methyl-4-(4-((6-methyl-2-oxo-3-((4-(trifluoromethoxy)phenyl)carbamoyl)pyridin-1(2H)-yl)methyl)pyridin-1-ium-2-yl)piperazin-1-ium bis-trifluoroacetate] cannot be ordered by IC50: under 100 nM for the first, under 100 nM for the second.

In the case of COCCOc1cccc(Cn2cc(-c3noc(-c4cnc(N5CCC(C)(C)CC5)nc4)n3)ccc2=O)c1 [Example 243, 5-{5-[2-(4,4-dimethylpiperidin-1-yl)pyrimidin-5-yl]-1,2,4-oxadiazol-3-yl}-1-{[3-(2-methoxyethoxy)phenyl]methyl}-1,2-dihydropyridin-2-one], the IC50 is reported as under 100 nM.

same assay, conditions: 6 hrs hypoxia (1% O2), luminescence

For O=c1ccc(-c2nc(-c3ccc(OC(F)(F)F)cc3)no2)cn1Cc1cccc(OCC(O)CO)c1 (single isomer, unassigned) [Example 55a, (2R)- or (2S)-1-(3-(2,3-dihydroxypropoxy)benzyl)-5-(3-(4-(trifluoromethoxy)phenyl)-1,2,4-oxadiazol-5-yl)pyridin-2(1H)-one], the IC50 was under 100 nM.
